Source: patent US11478478B2, “2,3-disubstituted 1-acyl-4-amino-1,2,3,4-tetrahydroquinoline derivatives and their use as bromodomain inhibitors” (GLAXOSMITHKLINE INTELLECTUAL PROPERTY (NO.2) LIMITED, priority 2013, dated 2022)

Each compound was assayed against T1, BRD4 BD2 (Homo sapiens, UniProt O60885, Y97A) (assay: TR-FRET binding assay, BRD4 BD2 (BD1-mutated protein)). Settings: read-out: pIC50 in the BRD4 BD2 assay (converted).
T1 construct: BRD4 (1-477) (Y97A) and (Y390A); made in house; host or cells: E. coli (pET15b vector)
Summary of the method: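 Displacement of Alexa Fluor647-labelled bromodomain ligand (at Kd) from 10 nM His-tagged BRD4 (1-477, Y97A) read by Eu-anti-His TR-FRET (665/615 ratio) in pH 7.4 HEPES buffer, 0.5% DMSO. Compound preincubated 30 min at rt, detection ≥30 min. pIC50 derived from four-parameter fit after normalisation to controls.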
For CC(=O)N1c2ccc(C(=O)NCCO)cc2[C@H](Nc2ccnc(C)n2)[C@@H](C)[C@@H]1C1CC1 [Example 441, (2S,3R,4R)-1-acetyl-2-cyclopropyl-N-(2-hydroxyethyl)-3-methyl-4-((2-methylpyrimidin-4-yl)amino)-1,2,3,4-tetrahydroquinoline-6-carboxamide], the IC50 was 1000 to 100000 nM. CC(=O)N1c2ccc(C(=O)NC3CCOCC3)cc2[C@H](Nc2ccc(F)cn2)[C@@H](C)[C@@H]1C1CC1 [Example 469, (2S,3R,4R)-1-acetyl-2-cyclopropyl-4-((5-fluoropyridin-2-yl)amino)-3-methyl-N-(tetrahydro-2H-pyran-4-yl)-1,2,3,4-tetrahydroquinoline-6-carboxamide] showed an IC50 of 100 nM. Compound COCCNC(=O)c1ccc2c(c1)[C@H](Nc1ccc(F)cn1)[C@@H](C)[C@H](C1CC1)N2C(C)=O [Example 471, (2S,3R,4R)-1-acetyl-2-cyclopropyl-4-((5-fluoropyridin-2-yl)amino)-N-(2-methoxyethyl)-3-methyl-1,2,3,4-tetrahydroquinoline-6-carboxamide] has an IC50 of 100 nM. For CC(=O)N1c2ccc(C(=O)NCCO)cc2[C@H](Nc2ccc(F)cn2)[C@@H](C)[C@@H]1C [Example 479, (2S,3R,4R)-1-acetyl-4-((5-fluoropyridin-2-yl)amino)-N-(2-hydroxyethyl)-2,3-dimethyl-1,2,3,4-tetrahydroquinoline-6-carboxamide], the IC50 was 100 nM. COCCCNC(=O)c1ccc2c(c1)[C@H](Nc1cccc(C)n1)[C@@H](C)[C@H](C1CC1)N2C(C)=O [Example 480, (2S,3R,4R)-1-acetyl-2-cyclopropyl-N-(3-methoxypropyl)-3-methyl-4-((6-methylpyridin-2-yl)amino)-1,2,3,4-tetrahydroquinoline-6-carboxamide] gave an IC50 of 100 nM. With CC(=O)N1c2ccc(C(=O)NC3CCOCC3)cc2[C@H](Nc2ncccn2)[C@@H](C)[C@@H]1C1CC1 [Example 484, (2S,3R,4R)-1-acetyl-2-cyclopropyl-3-methyl-4-(pyrimidin-2-ylamino)-N-(tetrahydro-2H-pyran-4-yl)-1,2,3,4-tetrahydroquinoline-6-carboxamide] the IC50 was 100 nM. CC(=O)N1c2ccc(C(=O)NC3COC3)cc2[C@H](Nc2ncccn2)[C@@H](C)[C@@H]1C1CC1 [Example 488, (2S,3R,4R)-1-acetyl-2-cyclopropyl-3-methyl-N-(oxetan-3-yl)-4-(pyrimidin-2-ylamino)-1,2,3,4-tetrahydroquinoline-6-carboxamide] was tested, and the IC50 was 100 nM. COCCNC(=O)c1ccc2c(c1)[C@H](Nc1ncccn1)[C@@H](C)[C@H](C1CC1)N2C(C)=O [Example 489, (2S,3R,4R)-1-acetyl-2-cyclopropyl-N-(2-methoxyethyl)-3-methyl-4-(pyrimidin-2-ylamino)-1,2,3,4-tetrahydroquinoline-6-carboxamide] gave an IC50 of 100 nM. CC(=O)N1c2ccc(C(=O)NCCO)cc2[C@H](Nc2ccc(C#N)cc2)[C@@H](C)[C@@H]1C1CC1 [Example 492, (2S,3R,4R)-1-acetyl-4-((4-cyanophenyl)amino)-2-cyclopropyl-N-(2-hydroxyethyl)-3-methyl-1,2,3,4-tetrahydroquinoline-6-carboxamide] gave an IC50 of 100 nM. Compound CC(=O)N1c2ccc(C(=O)NC(CO)CO)cc2[C@H](Nc2ccc(C#N)cc2)[C@@H](C)[C@@H]1C1CC1 [Example 493, (2S,3R,4R)-1-acetyl-4-((4-cyanophenyl)amino)-2-cyclopropyl-N-(1,3-dihydroxypropan-2-yl)-3-methyl-1,2,3,4-tetrahydroquinoline-6-carboxamide] has an IC50 of 100 nM. CC(=O)N1c2ccc(F)cc2[C@H](Nc2ncccn2)[C@@H](C)[C@@H]1C [Example 501, 1-((2S,3R,4R)-6-fluoro-2,3-dimethyl-4-(pyrimidin-2-ylamino)-3,4-dihydroquinolin-1(2H)-yl)ethanone] was tested, and the IC50 was 100 nM. For CC(=O)N1c2ccc(F)cc2[C@H](Nc2cccnc2C#N)[C@@H](C)[C@@H]1C1CC1 [Example 503, 3-(((2S,3R,4R)-1-acetyl-2-cyclopropyl-6-fluoro-3-methyl-1,2,3,4-tetrahydroquinolin-4-yl)amino)picolinonitrile], the IC50 was 1000 to 100000 nM. CC(=O)N1c2ccc(F)cc2[C@H](Nc2ncccc2C#N)[C@@H](C)[C@@H]1C [Example 504, 2-(((2S,3R,4R)-1-acetyl-6-fluoro-2,3-dimethyl-1,2,3,4-tetrahydroquinolin-4-yl)amino)nicotinonitrile] gave an IC50 of 100 nM. In the case of CNC(=O)c1ccc(N[C@H]2c3cc(F)ccc3N(C(C)=O)[C@@H](C)[C@@H]2C)cc1 [Example 506, 4-(((2S,3R,4R)-1-acetyl-6-fluoro-2,3-dimethyl-1,2,3,4-tetrahydroquinolin-4-yl)amino)-N-methylbenzamide], the IC50 is reported as 100 nM. COc1ncccc1N[C@H]1c2cc(F)ccc2N(C(C)=O)[C@@H](C)[C@@H]1C [Example 509, 1-((2S,3R,4R)-6-fluoro-4-((2-methoxypyridin-3-yl)amino)-2,3-dimethyl-3,4-dihydroquinolin-1(2H)-yl)ethanone] showed an IC50 of 100 nM. CC(=O)N1c2ccc(F)cc2[C@H](Nc2ccnc(O)n2)[C@@H](C)[C@@H]1C [Example 517, 1-((2S,3R,4R)-6-fluoro-4-((2-hydroxypyrimidin-4-yl)amino)-2,3-dimethyl-3,4-dihydroquinolin-1(2H)-yl)ethanone] showed an IC50 of 1000 to 100000 nM. Work on CC(=O)N1c2ccc(F)cc2[C@H](Nc2cccnc2O)[C@@H](C)[C@@H]1C [Example 518, 1-((2S,3R,4R)-6-fluoro-4-((2-hydroxypyridin-3-yl)amino)-2,3-dimethyl-3,4-dihydroquinolin-1(2H)-yl)ethanone] yielded an IC50 of 100 nM. CC(=O)N1c2ccc(F)cc2[C@H](Nc2ccnc(O)n2)[C@@H](C)[C@@H]1C1CC1 [Example 519, 1-((2S,3R,4R)-2-cyclopropyl-6-fluoro-4-((2-hydroxypyrimidin-4-yl)amino)-3-methyl-3,4-dihydroquinolin-1(2H)-yl)ethanone] was tested, and the IC50 was 1000 to 100000 nM. CC(=O)N1c2ccc(F)cc2[C@H](Nc2ccc(C(N)=O)cn2)[C@@H](C)[C@@H]1C1CC1 [Example 522, 6-(((2S,3R,4R)-1-acetyl-2-cyclopropyl-6-fluoro-3-methyl-1,2,3,4-tetrahydroquinolin-4-yl)amino)nicotinamide] showed an IC50 of 1000 to 100000 nM. In the case of CC(=O)N1c2ccc(F)cc2[C@H](Nc2ncccc2C(N)=O)[C@@H](C)[C@@H]1C1CC1 [Example 523, 2-(((2S,3R,4R)-1-acetyl-2-cyclopropyl-6-fluoro-3-methyl-1,2,3,4-tetrahydroquinolin-4-yl)amino)nicotinamide], the IC50 is reported as 100 nM. Work on CC(=O)N1c2ccc(F)cc2[C@H](Nc2ncccc2C(N)=O)[C@@H](C)[C@@H]1C [Example 527, 2-(((2S,3R,4R)-1-acetyl-6-fluoro-2,3-dimethyl-1,2,3,4-tetrahydroquinolin-4-yl)amino)nicotinamide] yielded an IC50 of 100 nM. For CC(=O)N1c2ccc(F)cc2[C@H](Nc2nc(C)ccc2C(N)=O)[C@@H](C)[C@@H]1C [Example 528, 2-(((2S,3R,4R)-1-acetyl-6-fluoro-2,3-dimethyl-1,2,3,4-tetrahydroquinolin-4-yl)amino)-6-methylnicotinamide], the IC50 was 100 nM. Compound CC(=O)N1c2ccc(F)cc2[C@H](Nc2ccnc(O)c2)[C@@H](C)[C@@H]1C1CC1 [Example 531, 1-((2S,3R,4R)-2-cyclopropyl-6-fluoro-4-((2-hydroxypyridin-4-yl)amino)-3-methyl-3,4-dihydroquinolin-1(2H)-yl)ethanone] has an IC50 of 1000 to 100000 nM.
